Experimental data taken from a melting point compilation (Tetko et al.; mined from patent text by program, amines drawn as free bases though some values may be those of a salt).

| SMILES | melting point [°C] |
| --- | --- |
| CC1CC(=O)NN=C1c1ccc(NC(=O)CCNCC(O)C(Cc2ccccc2)Oc2ccc(CCOCC3CC3)cc2)cc1 (configuration not stated) | 125 to 128 |
| O=Cc1cc(Cl)c(F)cc1O | 103 to 104 |
| COC(=O)c1cccc(-c2cccc3c2nc(N(C)c2cccc(C(F)(F)F)c2)n3C)c1 | 148 to 149 |
| COc1cc2c(cn1)OCC21C(=O)N(CC2CCOCC2)c2ccccc21 (configuration not stated) | 84 to 85 |
| COc1ccc(-c2c[nH]c(=O)nc2C)cc1 | 210 |
| CC(C)COc1ccc(-c2ccc3nnn(Cc4ccc5ncccc5c4)c3n2)cc1F | 115 to 157 |
| C=Cn1c(=O)c(C#N)c(N2CCN(C(=O)c3cccs3)CC2)c2cccnc21 | 228 |
| FC(F)Oc1cn(-c2c(Cl)cc(C(F)(F)F)cc2Cl)nc1C(F)(F)F | 55.5 to 58 |
| CCCCc1ncc(/C=C(\Cc2ccc(OC)cc2)c2nnn[nH]2)n1Cc1ccccc1Cl | 168 to 171 |
| CCCCOc1ccc(C2=CC=CN3CCS(=O)(=O)N=C23)cc1 | 230 to 232 |
| CC(=O)OC(C)c1ncnc(Cl)c1I (configuration not stated) | 55 to 58 |
| CCCc1c(OCCOCCOCCOc2ccc3ccc(OCC(=O)O)cc3c2C(C)=O)ccc(C(C)=O)c1O | 110 to 111 |
| Cc1cc(C)c2nc3n(c(=O)c2c1)-c1ccc(F)cc1C3=O | 275 to 277 |
| COc1cc(C)nc(NC(=O)NS(=O)(=O)N(C)S(C)(=O)=O)n1 | 118 to 120 |
| CCCCCCCCCCCCCCCCCCOC(=O)C(N)Cc1ccc(N)cc1 (configuration not stated) | 54 to 56 |
| CC(C)COC(=O)Nc1cccc(-c2ccnc3c(Br)cnn23)c1 | 90 to 92 |
| COc1cc(-c2cc(C(F)(F)F)nn2-c2ccc(S(C)(=O)=O)cc2)ccc1-c1ccco1 | 138 to 140 |
| OC(c1cc(F)ccc1F)c1ccncc1Cl (configuration not stated) | 169 to 170 |
| CCN(CC)C(=O)C(C)Cc1cc(-c2ccccc2)cc2ccccc12 (configuration not stated) | 70 |
| C=Cc1cc(C)cc(C)c1C1=C(O)C2(CCN(OC)CC2)N(OC2CCCO2)C1=O (configuration not stated) | 132 to 135 |
| Cn1cnc2nc(-c3ccc(Cl)cc3)nn2c1=S | 283 to 285 |
| O=C1C(=Cc2ccncc2)COc2ccccc21 | 132 |
| COc1cccc2c1cc(C)n2Cc1ccccc1 | 96 to 116 |
| CCN1CCc2ccc(Nc3ncc(Br)c(Nc4ccccc4C(=O)NC)n3)cc2CC1 | 203 to 204 |
| CN(C)Cc1cccc(-c2cc(-c3ccccc3O)nc(NC(=O)c3cccs3)c2C#N)c1 | 225 to 226 |
| CC(C)(C)C1(O)CCCCC1 | 49 to 50 |
| COc1ccc2cc3c(N)nn(CCN4CCOCC4)c3nc2c1 | 166 to 168 |

| SMILES | melting point [°C] |
| --- | --- |
| CCc1cc(CCc2nc3ccccc3o2)c(=O)[nH]c1COCc1ccccc1 | 140 to 142 |
| CCOC(=O)C(=O)c1cn(CCN2CCOCC2)c2ccccc12 | 99 to 100 |
| O=C(/C=C/c1ccccc1)NCCC1CCN(Cc2ccccc2)CC1 | 125 to 127 |
| COc1c(S(N)(=O)=O)c(C)nn1C | 144 to 146 |
| FC(F)(F)COc1cccc(-c2ccc3nnn(Cc4ccc5ncccc5c4)c3n2)c1 | 151 to 154 |
| CCOC(=O)C1CCN(C(N)=S)CC1 | 97 to 98 |
| COc1ccc2c(c1)C(c1ccccc1)=Nn1c(C)cnc1C2 | 140 |
| CCOC(=O)CCc1cc2c(c(Br)c1Br)OCC2 | 42 to 43 |
| CS(=O)(=O)c1ccc(-c2cnn(-c3cccc(Cl)c3)c(=O)c2Oc2ccc(F)cc2)cc1 | 211 to 213 |
| COc1cccc(OC)c1CN1C(=O)C2CCCN2c2ncccc21 (configuration not stated) | 200 to 202 |
| CN1Cc2c(-c3noc(CN4CCCC(C)(C)C4)n3)ncn2-c2ccccc2C1=O | 167 to 168 |
| COC1(c2ccc3c(c2)OCO3)CCC(=O)CC1 | 84 to 85 |
| CCSc1c(C#N)nn(-c2c(Cl)cc(C(F)(F)F)cc2Cl)c1Br | 134 to 140 |
| CC(C(=O)c1ccc(Br)cc1)n1ncn(-c2ccc(N3CCN(c4ccc(O[Si](C)(C)C(C)(C)C)cc4)CC3)cc2)c1=O (configuration not stated) | 178 |
| COP(C)(=O)C(O)[C@H](CC1CCCCC1)NC(=O)[C@H](CC(C)C)NC(=O)CCc1ccccc1 (some centres not stated) | 165 to 170 |
| COc1ccc2[nH]c(C(=O)C3(c4ccc(Cl)cc4)CCCC3)cc2c1 | 157 to 159 |
| CCN(CC)c1nc2ncnn2c2c1cnc1c2cnn1CC | 215 to 217 |
| CC(=O)NC(C)(C)c1ccc(-c2nc(Nc3ccc(F)cc3)ncc2C#N)cc1 | 212 to 216 |
| N#CCCn1c(C(=O)OCc2ccccc2)cc2ccccc21 | 98 to 100 |
| COc1cccc(CNc2nc(SCc3ccccc3)nc3nc[nH]c23)c1O | 193 to 194 |
| COc1ccccc1C(O)(c1ccc(C(C)C)cc1)C(C)C (configuration not stated) | 85 to 86 |
| CCOCc1nc2c(N)nc3cc(Br)cnc3c2n1CCCON=C(C)C | 128 to 130 |
| CCC(CC)O[C@@H]1C=C(C(=O)O)C[C@H](CC2CO2)[C@H]1NC(C)=O (some centres not stated) | 115 to 116 |
| CC12CCC(OC(=O)c3ccccc3)CC1=CCC1C2CCC2(C)C(=NO)CCC12 (configuration not stated) | 165 to 170 |
| Cc1cc(-n2cncn2)c2cccc(OCc3c(Cl)ccc(S(=O)(=O)N4CCC[C@H]4C(=O)NCC4CCN(CCOCCO)CC4)c3Cl)c2n1 | 82 |
| O=C(O)C1CCC(c2ccc(OCc3ccc4ccccc4n3)cc2)(c2ccc(OCc3ccc4ccccc4n3)cc2)CC1 | 194 to 199 |
| O=C1N(CC2COCCO2)c2ccccc2C12COc1cc3c(cc12)OCC3 (configuration not stated) | 162 to 164 |

The remaining lines, values ahead:

| melting point [°C] | SMILES |
| --- | --- |
| 152 to 153 | CN=C1SCC(O)(c2ccc(Cl)c(S(=O)(=O)NCc3cccnc3)c2)N1C (configuration not stated) |
| 133 to 134 | CC(C)(O)c1cc(Br)ccc1NC(=O)CCl |
| 153 to 155 | CC(C)(C)OC(=O)COC1=CC(=NS(=O)(=O)c2cccs2)c2ccccc2C1=O |
| 95 to 98 | Fc1cc(Cl)ccc1C1(Br)NNC2=C1CCCC2 (configuration not stated) |
| 236 | CN1CCOc2ccc(S(=O)(=O)n3c(Cc4ccc(C(=O)O)cc4)cc4c(Cl)cccc43)cc21 |
| 275 to 285 | Cc1ccc2c(-c3cnc4[nH]cc(C(=O)N[C@H](C)C(=O)N5CC(C#N)C5)c4n3)nn(C)c2n1 |
| 159 to 161 | COc1ccc(N2CCCN(/C(C)=C(/C#N)C(N)=S)CC2)cn1 |
| 98 to 99 | CC(=O)N(CCCCN1CCN(c2csc3cc(F)ccc23)CC1)C(=O)C(C)C |
| 110 to 112 | O=S(=O)(c1ccccc1)C(CCCCl)c1ccccc1 (configuration not stated) |
| 131 to 132 | CC1=C(C(=O)OCc2ccccc2)C(c2cccc(Cl)c2Cl)C(C(=O)OCc2ccccc2)=C(C)N1 |
| 192 to 193 | O=C(c1ccc(C(=O)N2CC3COCC3C2)cc1)N1CC2COCC2C1 (configuration not stated) |
| 160 to 162 | CS(=O)(=O)c1ccc(C2=C(c3ccc(F)cc3)C(=O)OC2)c(F)c1 |
| 99 | CCCCc1ccc(C(O)=S)nc1 |
| 95 to 97 | COc1ccc2cc(C(=O)c3ccc(C)c(C)c3)oc2c1 |
| > 300 | Cc1nn(-c2ccccn2)c2ncc(C(=O)NCc3ccccc3)c(O)c12 |
| 118 | COC(=O)c1c(C(=O)OC)c(-c2ccc(OC)c(OC)c2)c2sccc2c1OC |
| 158 to 159 | O=C(C=C1OC(=O)c2ccccc21)c1ccc(Cl)cc1 |
| 183 | NC(=O)c1nccn1C1Cc2ccccc2C1=O (configuration not stated) |
| 264 to 266 | NC1=C2C(=Nc3ccccc3S2(=O)=O)c2ccccc2C1=O |
| 104 to 106 | CN(C)OC(=O)c1c(O)cccc1Cl |
| 118 to 120 | O=C(CC(O)C(=O)O)c1ccc(C(F)(F)F)cc1 (configuration not stated) |
| 214 to 216 | CCOC(=O)c1cnc2c([N+](=O)[O-])cc(CN3CCOCC3)cc2c1O |
| 150 to 152 | CC(CCN(C)c1ccccc1)NCC(O)c1ccc(O)c(C(N)=O)c1 (configuration not stated) |
| 159 to 160 | CCCCC(=N)NC(=O)Nc1ccc(C)cc1 |

| melting point [°C] | SMILES |
| --- | --- |
| 55 to 56 | CCOC(=O)c1cnn(-c2ccc(Cl)cc2)c1C |
| 140 to 141 | COCC(=O)Nc1cc(NC(=O)COC)cc(C(=O)OC)c1 |
| 143 | COC(=O)c1c(C)cn2cc(OCc3ccccc3)ccc12 |
| 71 to 72 | CCCCOC(=O)Cc1nc(-c2ccccc2)oc1-c1ccsc1 |
| 33 | Cc1oc2c(Br)cccc2c1C |
| 151 to 152 | COc1ccc2nc(NN)nc(-c3ccccc3)c2c1 |
| 191 to 193 | Cc1cn(NC(=O)c2ccccc2C(=O)O)c2ccccc12 |
| 79.6 to 80.2 | COc1ccccc1C(=O)Nc1ccc(F)cc1 |
| 207 to 208 | O=C1CCCCc2cc(I)ccc2N1 |
| > 300 | O=c1[nH]c2ccccc2n2ccnc12 |
| 66 to 67 | CCOc1nn(-c2ccccn2)cc1CCCOc1cccc(CC(=O)O)c1 |
| 201 to 202 | Cc1sc(-c2cccnc2)nc1O |
| 182 | COc1ccc(CN(C)CCc2ccc(NC(=O)c3cccc4c(=O)c5ccccc5n(C)c34)cc2)cc1OC |
| 141 | CC(C)(Oc1ccc(C2CCOCC2)cc1Cl)C(=O)O |
| 283 to 285 | NC(=O)c1cccc(C(N)=O)c1[N+](=O)[O-] |
| 77.9 to 78.2 | CCCC(=O)Oc1ccc(-c2ccc(C#N)cc2)cc1 |
| 304 to 307 | Cc1cccc2nc3n(c(=O)c12)-c1ccccc1C3=O |
| 222 to 223 | CCOC(=O)C1(C(=O)OCC)Oc2ccc(CN/C=C3\C(=O)NC(=O)c4ccc(Br)cc43)cc2O1 |
| 91 to 92 | CC(C(=O)c1ccccc1)=C1CCCN1 |
| 74 to 75 | CCOC(=O)C1CCCCN1C(=O)/C=C/c1ccc(Sc2ccc3c(c2)OCCO3)c([N+](=O)[O-])c1 (configuration not stated) |
| 108 to 110 | O=S(=O)(Nc1ccc2c(OCc3ccc(C4CCCCC4)cc3)cccc2c1)C(F)(F)F |
| 137 to 143 | O=C(O)CNC(=O)C1(CS)Cc2ccccc2C1 |
| 159 | CC1CCCC(C)N1S(=O)(=O)N[C@@H](Cc1ccc(NC(=O)c2c(Cl)cccc2Cl)cc1)C(=O)O (some centres not stated) |
| 104 | CC(C)(C)C1c2ccccc2CCC1O (configuration not stated) |
